Activity calls are given as the source filed them. The rule behind the calls is not given here. A value given as a limit tells only on which side of the number the result lay.

Assay [1] addresses T1, Sigma intracellular receptor 2 (Rattus norvegicus, UniProt Q5U3Y7).
T1 sequence (Q5U3Y7 whole entry): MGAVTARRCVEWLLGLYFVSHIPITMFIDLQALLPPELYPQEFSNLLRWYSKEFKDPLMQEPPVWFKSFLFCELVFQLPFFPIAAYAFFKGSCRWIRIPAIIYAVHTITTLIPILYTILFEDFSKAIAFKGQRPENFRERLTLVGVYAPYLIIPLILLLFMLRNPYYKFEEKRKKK
The assay is described as follows: Displacement of [3H]-DTG from sigma2 receptor in rat liver membranes in presence of (+)-pentazocine. The class given is cell membranes, Membrane.

In assay [2] the target is C-8 sterol isomerase ERG2 (Saccharomyces cerevisiae S288c) (UniProt P32352). The assay is described as follows: Inhibition of yeast sterol-delta8/7-isomerase at 1 uM.
For assay [3] the target is unchanged. The assay is described as follows: Inhibition of yeast sterol-delta8/7-isomerase assessed as accumulation of cholesta-5,7-dien-3beta-ol at 50 uM.
Assay [4] has the same target. Kind of assay: Inhibition of yeast sterol-delta8/7-isomerase assessed as accumulation of cholesta-7-en-3beta-ol at 1 uM.
In assay [5] the target is T1, Sigma intracellular receptor 2. The assay is described as follows: Displacement of [3H]-DTG from sigma2 receptor in rat liver membranes after 120 mins by liquid scintillation counting. The class given is cell membranes, Membrane.
The target of assay [6] is C-8 sterol isomerase ERG2 (Saccharomyces cerevisiae S288c) (UniProt P32352). Kind of assay: Inhibition of yeast sterol-delta8/7-isomerase assessed as accumulation of cholesta-8-en-3beta-ol at 1 uM.
For assay [7] the target is unchanged. Kind of assay: Inhibition of yeast sterol-delta8/7-isomerase assessed as accumulation of cholesta-8,14-dien-3beta-ol at 50 uM.
Assay [8] shares this target. Kind of assay: Inhibition of yeast sterol-delta8/7-isomerase assessed as accumulation of cholesta-5,7-dien-3beta-ol at 1 uM.
A further assay concerns HL-60. Kind of assay: Inhibition of cholesteriol biosynthesis in human HL60 cells assessed as incorporation of 2-13C-acetate. The format is functional, cell-based.
The target in assay [9] is Sigma non-opioid intracellular receptor 1 (Cavia porcellus, UniProt Q60492). Kind of assay: Displacement of [3H]-pentazocine from sigma1 receptor in guinea pig brain membranes after 120 mins by liquid scintillation counting. The format is cell membranes, Membrane.
Assay [10] addresses C-8 sterol isomerase ERG2 (Saccharomyces cerevisiae S288c) (UniProt P32352). Kind of assay: Inhibition of yeast sterol-delta8/7-isomerase assessed as accumulation of cholesta-8-en-3beta-ol at 50 uM.
For assay [11] the target is unchanged. Kind of assay: Inhibition of yeast sterol-delta8/7-isomerase assessed as accumulation of cholesta-7-en-3beta-ol at 50 uM.
Assay [12] can be described thus: Displacement of [3H]-(+)-MK 801 from PCP binding site of NMDA receptor in pig brain cortex membranes after 120 mins by liquid scintillation spectrometry. The format is cell membranes, Sus scrofa.
In assay [13] the target is C-8 sterol isomerase ERG2 (Saccharomyces cerevisiae S288c) (UniProt P32352). Kind of assay: Inhibition of yeast sterol-delta8/7-isomerase assessed as accumulation of cholesta-8,14-dien-3beta-ol at 1 uM.
The target is the same in assay [14]. The assay is described as follows: Inhibition of yeast sterol-delta8/7-isomerase at 50 uM.
The species named for another assay is Sus scrofa. The assay is described as follows: Displacement of [3H]-(+)-MK 801 from PCP binding site of NMDA receptor in pig brain cortex membranes at 1 uM after 120 mins by liquid scintillation spectrometry. The format is cell membranes.

Chain of C-8 sterol isomerase ERG2 (Saccharomyces cerevisiae S288c) (P32352 whole entry, looked up): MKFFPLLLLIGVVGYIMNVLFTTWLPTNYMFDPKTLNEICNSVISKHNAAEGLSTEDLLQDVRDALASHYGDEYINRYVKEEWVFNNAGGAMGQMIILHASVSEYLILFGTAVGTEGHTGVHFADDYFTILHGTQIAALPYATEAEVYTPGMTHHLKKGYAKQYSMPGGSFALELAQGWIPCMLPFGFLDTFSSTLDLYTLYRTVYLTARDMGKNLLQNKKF
Chain of Sigma non-opioid intracellular receptor 1 (Q60492 whole entry): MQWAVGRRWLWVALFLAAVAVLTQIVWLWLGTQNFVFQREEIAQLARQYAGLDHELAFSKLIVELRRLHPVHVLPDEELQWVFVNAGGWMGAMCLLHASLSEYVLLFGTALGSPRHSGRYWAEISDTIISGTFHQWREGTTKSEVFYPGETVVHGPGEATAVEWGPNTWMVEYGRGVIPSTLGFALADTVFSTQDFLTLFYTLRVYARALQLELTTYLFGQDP

Regarding `c1ccc2c(c1)CCCC2CCCCN1CCN(C2CCCCC2)CC1` (stereo not drawn), the inhibitory constant (Ki) in assay [1] was determined as 14.6 nM.
For `CCCCN1CCCN(Cc2ccccc2)[C@@H](Cc2ccccc2)C1`, the inhibition result in [2], in assay [3], in assay [4], in assay [7], in assay [8] and in assay [11] was “Active” in each case. The inhibition entry in [13] is “Active”. In addition, the Ki is 238 nM in assay [5] and 3.7 nM in [9]. Further, the inhibition result in assay [6] and in assay [10] was “inactive” throughout. Also, the concentration for half-maximal inhibition (IC50) with HL-60 is 742 nM; in assay [12], over 1000 nM.
As to `COc1ccc(CN2CCCN(Cc3ccccc3)[C@H](Cc3ccccc3)C2)cc1`, the inhibition entry in assay [3], in assay [4], in [6], in [7], in [8] and in assay [14] was “Active” each time. For the same compound, the inhibition entry in [11] and in assay [13] was “Active” each time. In addition, the figures for the inhibition constant (Ki) in assay [5] and in [9] were 426 nM and 42 nM, respectively. Further, the inhibition entry in assay [10] was “inactive”. The compound also returned a 50% inhibitory concentration (IC50) in assay [12] of over 1000 nM.
Consider `c1ccc(C[C@@H]2CN(Cc3ccccc3)CCCN2Cc2ccccc2)cc1`, for which the inhibition entry in assay [3], in [4], in assay [6], in [7], in assay [8] and in assay [10] was “Active” each time. In addition, the inhibition entry in [14], in [11] and in assay [13] was “Active” throughout. The inhibition constant Ki in [5] was 514 nM; in [9], 80 nM. This compound gave a half-inhibitory concentration (IC50) in assay [12] of over 1000 nM.
For `c1ccc(C[C@H]2CN(Cc3ccccc3)CCCN2Cc2ccccc2)cc1`, the inhibition entry in assay [3], in assay [4], in assay [6], in assay [7], in assay [8] and in assay [14] was “Active” throughout. Besides, the inhibition result in [11] and in assay [13] was “Active” each time. Further, the inhibition constant Ki in assay [5] is over 1000 nM; in [9], 71 nM. For the same compound, the inhibition result in assay [10] is “inactive”. In assay [12], this compound registered a concentration for half-maximal inhibition (IC50) of over 1000 nM.
As for `CCCCN1CCCN(Cc2ccccc2)[C@H](Cc2ccccc2)C1`, the inhibition entry in [3], in [4], in assay [6], in assay [7], in assay [8] and in [14] was “Active” each time. Besides, the inhibition entry in assay [11] and in [13] was “Active” throughout. The results for the inhibition constant (Ki) in assay [5] and in assay [9] were 169 nM and 3.9 nM, respectively. Further, the inhibition result in assay [10] was “inactive”. Further, the IC50 in assay [12] is over 1000 nM.
On to `CCCCN1CCCN(Cc2ccccc2)[C@H](C)C1`, for which the inhibition entry in [3], in [4], in [6], in assay [11] and in assay [13] was “Active” each time. Besides, the values for the Ki in assay [5] and in assay [9] were 372 nM and 0.37 nM, respectively. Moreover, the inhibition entry in [7], in [8] and in assay [10] was “inactive” each time. This compound also yielded a concentration for half-maximal inhibition (IC50) in [12] of over 1000 nM.
Compound `OC(CN1CCCN(Cc2ccccc2)[C@H](Cc2ccccc2)C1)c1ccccc1` (stereo partly drawn) displayed an inhibition in the assay listed under Sus scrofa of 50%. Moreover, the Ki in [5] is over 1000 nM; in assay [9], 51 nM. This compound displayed a half-maximal inhibitory concentration (IC50) in [12] of 1000 nM.
In the case of `COc1cccc2c1CCCC2CCCN1CCN(C2CCCCC2)CC1` (stereo not drawn), the Ki in assay [1] is 0.34 nM.
Regarding `c1ccc(CCCCN2CCCN(Cc3ccccc3)[C@H](Cc3ccccc3)C2)cc1`, the inhibition result in assay [3], in assay [4], in [7], in assay [8], in assay [10] and in [11] was “Active” in each case. For the same compound, the Ki in [5] stood at 423 nM; in assay [9], 28 nM. Besides, the inhibition entry in [6] and in assay [13] was “inactive” in each case. In assay [12], this compound displayed an IC50 of over 1000 nM.
Regarding `CN1CCCN(Cc2ccccc2)[C@@H](Cc2ccccc2)C1`, the inhibition entry in [3], in assay [4], in assay [8], in assay [11] and in [13] was “Active” each time. Besides, the Ki is over 1000 nM in assay [5] and 448 nM in assay [9]. The inhibition result in [6], in assay [7] and in assay [10] was “inactive” throughout. Besides, the IC50 in [12] is over 1000 nM.
Turning to `C[C@@H]1CN(CC2CCCCC2)CCCN1Cc1ccccc1`, the inhibition entry in assay [3], in assay [4], in assay [8] and in assay [11] was “Active” throughout. The inhibition constant Ki in [5] amounted to 7 nM; in assay [9] it was 0.38 nM. Moreover, the inhibition result in [6], in assay [7], in assay [10] and in assay [13] was “inactive” each time. Also, in [12], the IC50 is over 1000 nM.
Consider `c1ccc(CCCN2CCCN(Cc3ccccc3)[C@H](Cc3ccccc3)C2)cc1`, for which the inhibition entry in [3], in assay [4], in assay [6], in [7], in [10] and in assay [11] was “Active” in each case. Moreover, in assay [13], the inhibition entry is “Active”. Further, the Ki stood at 300 nM in assay [5] and 25 nM in [9]. Besides, the inhibition entry in assay [8] was “inactive”. Also, in assay [12], the concentration for half-maximal inhibition (IC50) was over 1000 nM.
On to `OCC(c1ccccc1)N1CCCN(Cc2ccccc2)[C@H](Cc2ccccc2)C1` (stereo partly drawn), for which the inhibition in the assay filed under Sus scrofa stood at 50%. For the same compound, the Ki in [5] was over 1000 nM; in assay [9], 27 nM. In [12], this compound registered an IC50 of 1000 nM.
Regarding `c1ccc(CCN2CCCN(Cc3ccccc3)[C@@H](Cc3ccccc3)C2)cc1`, the inhibition entry in assay [3], in assay [4], in assay [6], in assay [7], in assay [8] and in assay [10] was “Active” throughout. Further, the inhibition entry in assay [14], in assay [11] and in [13] was “Active” throughout. Further, the values for the Ki in assay [5] and in [9] were 426 nM and 40 nM, respectively. In addition, the IC50 in assay [12] was over 1000 nM.
